Source: patent US20120010272A1, “RNA Interference Mediated Inhibition of Apoptosis Signal-Regulating Kinase 1 (ASK1) Gene Expression Using Short Interfering Nucleic Acid (siNA)” (Merck Sharp & Dohme Corp., priority 2009, published 2012)
[invAb] = inverted abasic unit; d = 2'-deoxy (DNA); m = 2'-O-methyl; r = 2'-OH (RNA); f = 2'-fluoro

Assays:
[1] = tested on: ASK1 mRNA; experiment: ASK1 mRNA knock-down by siNA in mouse Hepa1-6 cells (RNAiMax transfection, Taqman RT-PCR); format: cell-based; conditions: 10 nM siNA, 24 hrs post-transfection, vs non-targeting control, GAPDH-normalized, mean ± S.D., two experiments
Experimental: Hepal-6 (murine; ATCC cat #CRL-1830): Cells were cultured at 37° C. in the presence of 5% CO2 and grown in Dulbecco's modified Eagle's medium (DMEM) with 4 mM L-glutamine adjusted to contain 1.5 g/L sodium bicarbonate and 4.5 g/L glucose and supplemented with 10% of fetal bovine serum, 100 μg/mL of streptomycin, and 100 U/mL penicillin.
(§1) Cells were plated in all wells of a tissue-culture treated, 96-well plate at a final count of 5000 cells/well (A549 cell line) and 3,500 cells/well (Hepal-6 cell line) in 100 μL of the appropriate culture media. The cells were cultured for 24 hours after plating at 37° C. in the presence of 5% CO2.
(§2) After 24 hours, complexes containing siNA and RNAiMax were created as follows: A solution of RNAiMax diluted 33-fold in OPTI-MEM was prepared. In parallel, solutions of the siNAs for testing were prepared to a final concentration of 120 nM in OPTI-MEM. After incubation of RNAiMax/OPTI-MEM solution at room temperature for 5 min, an equal volume of the siRNA solution and the RNAiMax solution were added together for each of the siNAs.
(§3) This solution was incubated at room temperature for 20 minutes. After incubation, 20 uL of the solution was added to each of the relevant wells. The final concentration of siNA in each well was 10 nM and the final volume of RNAiMax in each well was 0.3 ul.
(§4) The time of incubation with the RNAiMax-siNA complexes was 24 hours and there was no change in media between transfection and harvesting, unless otherwise indicated.
(§5) RNA was extracted from a 96-well plate using the TaqMan® Gene Expression Cells-to-CT™ Kit (Cat #4399002) with a modified protocol. Briefly, a 60 uL (1 plate) or 110 uL (2 plates) of the Lysis Solution with DNase I was dispensed into each well of the Lysis Buffer Plate (twin.tec full skirt plate). The lysis buffer and stop plates were stored at 4° C. until the cells were washed.
(§6) The plate was spun at 1100 rpm for 5 minutes. The culture medium was aspirated and discarded from the wells of the culture plate. The lysis was performed automatically using a BioMek FX instrument and method. After the Biomek method was completed, the lysis plate was incubated for 2 min. at room temperature. The lysis plate can be stored for 2 hours at 4° C., or at −20° C. or −80° C. for two months.
(§7) Each well of the reverse transcription plate required 10 uL of 2× reverse transcriptase Buffer, 1 uL of 20× reverse transcription enzyme and 2 uL of nuclease-free water. The reverse transcription master mix was prepared by mixing 2× reverse transcription buffer, 20× reverse transcription enzyme mix, and nuclease-free water. 13 uL of the reverse transcription master mix was dispensed into each well of the reverse transcription plate (semi-skirted). A separate reverse transcription plate was prepared for each cell plate. The plate was loaded onto a Biomek NX or Biomek FX Dual-96 and the Biomek method was run. The program is programmed to automatically added 7 uL of lysate from the cell lysis procedure described above into each well of the reverse transcription plate. The plate is sealed and spun on a centrifuge (1000 rpm for 30 seconds) to settle the contents to the bottom of the reverse transcription plate. The plate is placed in a thermocycler at 37° C. for 60 min, 95° C. for 5 min, and 4° C. until the plate is removed from the thermocycler. Upon removal, if not used immediately, the plate was frozen at −20° C.
(§8) A series of probes and primers were used to detect the various mRNA transcripts of the genes of ASK1, ASK2, and GAPDH in human cell lines and ASK1 and GAPDH in mouse cell lines. All Taqman probes and primers for the experiments were supplied as pre-validated sets by ABI (see Table 2).
(§9) The assays were performed on an ABI 7900 instrument, according to the manufacturer's instructions. A TaqMan Gene Expression Master Mix (provided in the Cells-to-CT™, Applied Biosystems, Cat #4399002) was used. […]

[2] = tested on: ASK1 mRNA; experiment: ASK1 mRNA knock-down by siNA in human A549 cells (RNAiMax transfection, Taqman RT-PCR); format: cell-based; conditions: 10 nM siNA, 24 hrs post-transfection, vs non-targeting control, GAPDH-normalized, mean ± S.D., two experiments
Experimental: A549 (human; ATCC cat #CCL-185): Cells were cultured at 37° C. in the presence of 5% CO2 and grown in Ham's F12K medium with 2 mM L-glutamine adjusted to contain 1.5 g/L sodium bicarbonate and supplemented with fetal bovine serum at a final concentration of 10%, 100 μg/mL of streptomycin, and 100 U/mL penicillin.
as §1, §2, §3, §4, §5, §6, §7, §8, §9

Row | Substance | % KD Mouse [1] [%] | % KD Human [2] [%]
1 | 25374-DC: siNA duplex, sense B GcAcuGGGAAcuAcAccuu TTB, antisense AAGGuGuAGuucccAGuGcUU (SEQ ID NO: 29/30), human ASK1 target site 978 (sense GCACUGGGAACUACACCUUTT; antisense AAGGUGUAGUUCCCAGUGCUU; chemistry not fully specified) | 43 ± 12 | 19 ± 4
2 | 25384-DC: siNA duplex, sense B GGAAcAGccuucAAAucAA TTB, antisense UUGAuuuGAAGGcuGuuccUU (SEQ ID NO: 49/50), human ASK1 target site 3958 (sense GGAACAGCCUUCAAAUCAATT; antisense UUGAUUUGAAGGCUGUUCCUU; chemistry not fully specified) | 61 ± 0 | 82 ± 1
3 | 25398-DC: siNA duplex, sense B GuGAcAGcAGcuucAuGAA TTB, antisense UUCAuGAAGcuGcuGucAcUU (SEQ ID NO: 77/78), human ASK1 target site 1038 (sense GUGACAGCAGCUUCAUGAATT; antisense UUCAUGAAGCUGCUGUCACUU; sense: DNA at AGT, 2'-fluoro at CU, [invAb] at 5' end, 3' end, backbone not given here; antisense: sugars from the 5' end rrrmfmmmmffmffmffmfmm, backbone not given here) | 51 ± 2 | 38 ± 6
4 | 25378-DC: siNA duplex, sense B cGGAAGAccAAGAcAAAAu TTB, antisense AUUuuGucuuGGucuuccGUU (SEQ ID NO: 37/38), human ASK1 target site 3537 (sense CGGAAGACCAAGACAAAAUTT; antisense AUUUUGUCUUGGUCUUCCGUU; chemistry not fully specified) | 34 ± 2 | 79 ± 5
5 | 25397-DC: siNA duplex, sense B AGccAGuAcuuccGGGAAu TTB, antisense AUUcccGGAAGuAcuGGcuUU (SEQ ID NO: 75/76), human ASK1 target site 1166 (sense AGCCAGUACUUCCGGGAAUTT; antisense AUUCCCGGAAGUACUGGCUUU; chemistry not fully specified) | 78 ± 7 | 60 ± 0
6 | 25401-DC: siNA duplex, sense B uccuGGucGAGGccAcAAA TTB, antisense UUUGuGGccucGAccAGGAUU (SEQ ID NO: 83/84), human ASK1 target site 1995 (sense UCCUGGUCGAGGCCACAAATT; antisense UUUGUGGCCUCGACCAGGAUU; sense: DNA at AGT, 2'-fluoro at CU, [invAb] at 5' end, 3' end, backbone not given here; antisense: sugars from the 5' end rrrmfmmffffmmffmmmmmm, backbone not given here) | 21 ± 0 | 10 ± 16
7 | 25388-DC: siNA duplex, sense B GGuAGAGAcuuuAGAAAAA TTB, antisense UUUuucuAAAGucucuAccUU (SEQ ID NO: 57/58), human ASK1 target site 1360 (sense GGUAGAGACUUUAGAAAAATT; antisense UUUUUCUAAAGUCUCUACCUU; sense: sugars from the 5' end d2 f1 d5 f4 d9, [invAb] at 5' end, 3' end, backbone not given here; antisense: sugars from the 5' end rrrffffmmmmfffffmffmm, backbone not given here) | 32 ± 5 | 89 ± 4
8 | 25393-DC: siNA duplex, sense B GGuucAAAAAGGcAuuuGA TTB, antisense UCAAAuGccuuuuuGAAccUU (SEQ ID NO: 67/68), human ASK1 target site 1614 (sense GGUUCAAAAAGGCAUUUGATT; antisense UCAAAUGCCUUUUUGAACCUU; chemistry not fully specified) | 77 ± 2 | 88 ± 5
9 | 25395-DC: siNA duplex, sense B cuGAuGAcAAGAAAGGuAu TTB, antisense AUAccuuucuuGucAucAGUU (SEQ ID NO: 71/72), human ASK1 target site 2139 (sense CUGAUGACAAGAAAGGUAUTT; antisense AUACCUUUCUUGUCAUCAGUU; chemistry not fully specified) | 6 ± 15 | 32 ± 12
10 | 25382-DC: siNA duplex, sense B ccAGAAcuAAGGccAcAuu TTB, antisense AAUGuGGccuuAGuucuGGUU (SEQ ID NO: 45/46), human ASK1 target site 3875 (sense CCAGAACUAAGGCCACAUUTT; antisense AAUGUGGCCUUAGUUCUGGUU; chemistry not fully specified) | −26 ± 10 | 20 ± 4
11 | 25375-DC: siNA duplex, sense B GGAuGAAAAuAGAAAccAA TTB, antisense UUGGuuucuAuuuucAuccUU (SEQ ID NO: 31/32), human ASK1 target site 4101 (sense GGAUGAAAAUAGAAACCAATT; antisense UUGGUUUCUAUUUUCAUCCUU; chemistry not fully specified) | 6 ± 13 | 76 ± 6
12 | 25400-DC: siNA duplex, sense B ccAcuGAccGAAAAAucAu TTB, antisense AUGAuuuuucGGucAGuGGUU (SEQ ID NO: 81/82), human ASK1 target site 3660 (sense CCACUGACCGAAAAAUCAUTT; antisense AUGAUUUUUCGGUCAGUGGUU; chemistry not fully specified) | 74 ± 1 | 86 ± 4
13 | 25386-DC: siNA duplex, sense B GAGcAAccAAGucAGAAuu TTB, antisense AAUucuGacuuGGuuGcucUU (SEQ ID NO: 53/54), human ASK1 target site 2461 (sense GAGCAACCAAGUCAGAAUUTT; antisense AAUUCUGACUUGGUUGCUCUU; inverted abasic end caps, TT overhang, chemistry not fully specified) | 53 ± 1 | 80 ± 1
14 | 25396-DC: siNA duplex, sense B cAAGcAAAAAGAAAAAGAc TTB, antisense GUCuuuuucuuuuuGcuuGUU (SEQ ID NO: 73/74), human ASK1 target site 3183 (sense CAAGCAAAAAGAAAAAGACTT; antisense GUCUUUUUCUUUUUGCUUGUU; chemistry not fully specified) | 75 ± 1 | 90 ± 1
15 | 25383-DC: siNA duplex, sense B cuGcuGAucAAGAAGAcuu TTB, antisense AAGUCuucuuGAucAGcAGUU (SEQ ID NO: 47/48), human ASK1 target site 3918 (sense CUGCUGAUCAAGAAGACUUTT; antisense AAGUCUUCUUGAUCAGCAGUU; chemistry not fully specified) | 1 ± 3 | 68 ± 7
16 | 25390-DC: siNA duplex, sense B GGcuGAAGAuuAuAcAcuA TTB, antisense UAGuGuAuAAucuucAGccUU (SEQ ID NO: 61/62), human ASK1 target site 4354 (sense GGCUGAAGAUUAUACACUATT; antisense UAGUGUAUAAUCUUCAGCCUU; chemistry not fully specified) | −18 ± 14 | 93 ± 1
